In patent US20230414626A1, “INDUCTION OF FERROPTOSIS FOR CANCER THERAPY” (Memorial Sloan Kettering Cancer Center, priority 2020, published 2023):

Legend:
MDA-MB-453 cells = test: Measurement of lipid peroxidation (BODIPY C11, flow cytometry); format: cell-based, human; settings: with RSL3
Experimental: (§1) FIG. 2 A-E. mTORC1, instead of mTORC2, suppresses ferroptosis. (A) MDA-MB-453 and BT474 were treated with CCI-779 (0.5 μM), RSL3 (1 μM for MDA-MB-453 cells and 0.5 μM for BT474 cells), and Fer-1 (1 μM) as indicated. (B) Cells were seeded in 6-well plate, 4×10^5 cells per well and incubated overnight. MDA-MB-453 and BT474 cells were treated as indicated. CCI-779, 0.5 μM; RSL3, 1 μM for MDA-MB-453 cells and 0.5 μM for BT474 cells; Fer-1, 1 μM. Cells were stained with 5 μM C1I-BODIPY followed by flow cytometry after 8 h-treatment. (C) 3D spheroids were treated as indicated. CCI-779, 0.5 μM; RSL3, 0.5 μM; Fer-1, 1 μM. Top panel, dead cells were stained by SYTOX Green (scale bar, 100 μm). Bottom panel, cell viability was assayed by measuring cellular ATP levels. (D) Cells expressing shRNAs targeting RPTOR or RICTOR were treated as indicated. CCI-779, 0.5 μM; RSL3, 0.5 μM; Fer-1, 1 μM. (E) Lipid peroxidation of samples as in panel D were measured.
(§2) FIG. 7 A-J. PI3K-AKT-mTOR signaling regulates ferroptosis sensitivity. (A) Cells were treated as indicated. GDC-0941, 2 μM; MK-2206, 2 μM; RSL3, 1 μM; Fer-1, 1 μM. Lipid peroxidation was measured. (B) Cells were treated with indicated conditions. Torin, 1 μM; RSL3, 1 μM for MDA-MB-453 cells and 0.5 μM for BT474 cells; Fer-1, 1 μM. Cell death was measured. (C) Cells were treated with indicated conditions. RSL3, 10 μM for MCF cells and PC-3 cells, 5 μM for T47D cells, 1 μM for HepG2 cells; Torin, 1 μM; CCI-779, 0.5 μM. (D) Cells were treated as indicated. CCI-779, 0.5 μM; Torin, 1 μM; Fer-1, 1 μM. Cell death was staining by propidium iodide (PI) (red) or Sytox Green (green) (scale bar, 100 μm). (E-F) 3D spheroids for MDA-MB-453 cells and MCF7 cells were treated as indicated. CCI-779, 0.5 μM; RSL3, 1 μM for MDA-MB-453 cells and 5 μM for MCF7 cells; Fer-1, 1 μM. Top panels, cell death staining (scale bar, 100 m). Bottom panels, cell viability. (G) MDA-MB-453 cells were treated as indicated for 24 h. RSL3, 1 μM; CCI-779, 0.5 μM; GDC-0941, 2 μM; MK-2206, 2 μM; Dabrafenib, 2 μM; SCH772984, 2 μM; Fer-1, 1 μM. (H) Western blot was performed to detect RPTOR and RICTOR knockdown efficiency. (I) HT1080 cells and MDA-MB-231 cells (both with wild-type PI3K-AKT-mTOR pathway) were treated as indicated. RSL3, 0.1 μM for HT1080 and 0.25 μM for MDA-MB-231; Torin, 1 μM; CCI-779, 0.5 μM; Fer-1, 1 μM. Cell death was measured. (J) Two lines of PI3K-AKT-mTOR pathway wild-type cells (HT1080 and MDA-MB-231) and two lines of cells harboring activating mutation of the pathway (BT474 and MDA-MB-453) were treated as indicated. RSL3, 0.25 μM; Fer-1, 1 μM. Western blot was performed to detect the level of pT389 S6K.
(§3) FIG. 11 A-H. SCD1 protects cells against ferroptosis. (A) Cells were pretreated cells with 5 μM CAY10566 overnight. Cells were treated as indicated. RSL3, 1 μM for MDA-MB-453 and 0.5 μM for BT474; Fer-1, 1 μM; CAY10566, 5 μM; Fer-1, 1 μM. (B) Western blot, measuring the SCD knockout efficiency in BT474, MDA-MB-453 and MCF7 cells. (C) MCF cells (sgCtrl, sgSCD #1 and sgSCD #2) were treated as indicated. RSL3, 5 μM; Fer-1, 1 μM. (D) Cells were treated as indicated. RSL3, 1 μM for MDA-MB-453 cells and 0.5 μM for BT474 cells; Fer-1, 1 μM. (E) Cells were treated as indicated. RSL3, 1 μM for MDA-MB-453 cells and 0.5 μM for BT474 cells; Fer-1, 1 μM; CCI-779, 0.5 μM; GDC-0941, 2 μM; MK-2206, 2 μM. (F) SCD1 was overexpressed in BT474 cells. Cells were treated as indicated. RSL3, 0.5 μM; CCI-779, 0.5 μM. Lipid peroxidation was measured. (G) SCD1 was overexpressed in A549 cells and determined by western blot. Cells were treated as indicated. RSL3, 0.25 μM; CCI-779, 0.5 μM. Lipid peroxidation and cell death were measured 6 h and 24 h after treatment, respectively. (H) SCD1 was overexpressed in BT474 cells harboring SREBF1 knockout. SCD1 and SREBP1 level were determined by western blot. Cells were treated as indicated. RSL3, 0.5 μM; CCI-779, 0.5 μM; Fer-1, 1 μM.
(§4) Lipid peroxidation was analyzed by flow cytometry. […]

BT474 cells = test: as above; format: cell-based, human; settings: with RSL3
Experimental: as §1, §2, §3, §4

| SMILES | sensitization to lipid peroxidation (MDA-MB-453 cells) | sensitization to lipid peroxidation (BT474 cells) |
| --- | --- | --- |
| CS(=O)(=O)N1CCN(Cc2cc3nc(-c4cccc5[nH]ncc45)nc(N4CCOCC4)c3s2)CC1 [GDC-0941] | sensitized | sensitized |
| NC1(c2ccc(-c3nc4ccn5c(=O)[nH]nc5c4cc3-c3ccccc3)cc2)CCC1 [MK-2206] | sensitized | sensitized |
| CO[C@H]1C[C@@H]2CC[C@@H](C)[C@@](O)(O2)C(=O)C(=O)N2CCCC[C@H]2C(=O)O[C@H]([C@H](C)C[C@@H]2CC[C@@H](OC(=O)C(C)(CO)CO)[C@H](OC)C2)CC(=O)[C@H](C)/C=C(\C)[C@@H](O)[C@@H](OC)C(=O)[C@H](C)C[C@H](C)/C=C/C=C/C=C/1C [CCI-779, Temsirolimus] | sensitize | sensitize |
| Cc1nnc(-c2ccc(N3CCC(Oc4cc(F)ccc4Cl)CC3)nn2)o1 [CAY10566] | sensitized the effect of RSL3 | sensitized the effect of RSL3 |
| CCCc1cc(-c2nc(-c3ccc(C)cc3)cs2)ccn1 [Fatostatin A] | sensitized | sensitized |
